assay: gradient 5% acetonitrile 3 min, to 50% in 2 min, to 85% in 15 min, held 3 min, 100 µL/min; conditions: column: Zorbax Extend-C18 2.1 x 50 mm; eluents: water / acetonitrile, 0.1% formic acid
In short: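 The mobile phases were water and acetonitrile, each with 0.1% formic acid, pumped at 100 μL/min through a Zorbax Extend-C18 column (2.1 × 50 mm, 1.8 μm). Pure standards were injected as mixtures of ~100 molecules and detected by a quadrupole time-of-flight mass spectrometer in positive and negative ionization mode. Retention time came from computationally picked adduct peaks, each inspected by hand.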

| RP-LC retention time | SMILES |
| --- | --- |
| 553 s | O=C(NC1CC1)c1ccc(N2CCC(NCc3ccc(F)cc3)C2)nc1 (stereo unspecified) |
| 668 s | COc1ccc(-n2c(CN3CCN(C(=O)NC4CCCCC4)CC3)nc3cccnc32)cc1 |
| 669 s | CCOc1cc(C2NC(=O)c3[nH]nc(-c4cccc(OC)c4)c32)ccc1O (stereo unspecified) |
| 872 s | CC(C)Cn1nc(CNC(=O)C2CCC2)c2ccccc21 |
| 869 s | Cc1cccc(-c2nc(C)c(C(=O)NC3CC3)s2)c1 |
| 664 s | CCOC(=O)C1CCN(C(=O)c2nc3ccccn3c2-c2ccsc2)CC1 |
| 806 s | COc1ccc(NS(=O)(=O)c2ccc(-c3c(C)noc3C)cc2)cc1OC |
| 798 s | O=C(Nc1ccccc1)C1CCCN(c2ncnc3c2oc2ccccc23)C1 (stereo unspecified) |
| 620 s | O=C(CCC(=O)N1CC2CCCN2c2ccccc21)NCCN1CCOCC1 (stereo unspecified) |
| 762 s | Cc1cccc(Nc2c(-c3nc(C)no3)cnc3nc(C)ccc23)c1 |
| 613 s | NC(=O)CNC(=O)c1nc(-c2ccsc2)nc2c1OCCO2 |
| 625 s | COc1ccccc1NC(=O)N1C[C@@H](F)C[C@H]1C(=O)N1CCOCC1 |
| 952 s | Cc1ccc(Cn2nc3ccc(S(=O)(=O)N4CCCCC4)cn3c2=O)cc1 |
| 677 s | CC(=O)c1ccc(NC(=O)CC2COc3ccccc3NC2=O)cc1 (stereo unspecified) |
| 655 s | Cc1ccc(C(=O)N2CC(n3cc(COc4ccc(F)cc4)nn3)C2)c(=O)[nH]1 |
| 558 s | CSc1ccccc1CN1CCC(CNC(=O)C(=O)Nc2ccon2)CC1 |
| 820 s | Cc1ccccc1CNC(=O)C1(C)CCCN(C(=O)NCC(C)C)C1 (stereo unspecified) |
| 619 s | CN(C)C(=O)c1ccc2c(c1)N(CC(=O)NCc1cccc(Cl)c1)C(=O)C1CCCCN21 (stereo unspecified) |
| 870 s | Cc1ccc(CNC(=O)C2CCN(C(=O)c3ncn4c3COC(c3ccc(Cl)cc3)C4)CC2)cc1 (stereo unspecified) |
| 607 s | CS(=O)(=O)N1CCCc2cc(C(=O)NCc3ccccn3)ccc21 |
| 885 s | Cc1ccc(NC(=O)Cn2c(C)nc3onc(C)c3c2=O)cc1Cl |
| 960 s | Cc1cc(N2CCOCC2)n2nc(-c3ccc(C(C)(C)C)cc3)nc2n1 |
| 605 s | CCCCNC(=O)Cn1c(CC)nc2c(c1=O)CN(Cc1ccccc1)CC2 |

| RP-LC retention time | SMILES |
| --- | --- |
| 708 s | O=C(Nc1nnc(C2CC(=O)N(c3ccccc3)C2)o1)c1ccc(F)cc1 (stereo unspecified) |
| 824 s | Cc1nnc(-c2coc(S(=O)(=O)N3CCCCCC3)c2)o1 |
| 678 s | COC(=O)c1ccc(C(=O)OC)c(NC(=O)N2CCC(CN3CCCCCC3)CC2)c1 |
| 746 s | O=C1NC2(CCN(C(=O)Nc3ccc4c(c3)OCO4)CC2)N=C1c1ccccc1 |
| 555 s | Cc1cc2n(n1)CCCN2C(=O)CCC(=O)N1CCN(c2ccccn2)CC1 |
| 657 s | CC(C)CCN(CC(=O)N1CCNCC1)C(=O)c1ccc(Br)cc1 |
| 986 s | CCOC(=O)c1sc(NC(=O)c2ccc(Br)cc2F)nc1C |
| 656 s | CCOC[C@@H]1CC(F)(F)CN1C1CCN(Cc2ccc3cc[nH]c3c2)CC1 |
| 784 s | O=C(Nc1cccc(F)c1)N1CCN(Cc2nc3ccc(Cl)cc3o2)CC1 |
| 833 s | Cn1cc(S(=O)(=O)N2CCCCC2)cc1C(=O)N1CCCCC1 |
| 1060 s | CCOc1ccc(S(=O)(=O)N2CCCC(C(=O)NC3CCCCCC3)C2)cc1 (stereo unspecified) |
| 759 s | O=C(Cc1nnc(-c2ccc3ncccc3c2)o1)NCCC1=CCCCC1 |
| 687 s | CNC(=O)c1sc(Nc2ccc(Cl)cn2)nc1C |
| 813 s | O=C(c1nccc2ccccc12)N1CCCCC1c1nc(C2CC2)no1 (stereo unspecified) |
| 593 s | Cc1ccc(-n2c(=O)n(CC(=O)NCCCN(C)C)c3cccnc32)cc1 |
| 592 s | CC(C)C1c2nccn2CCCN1C(=O)c1cc(C2CC2)[nH]n1 (stereo unspecified) |
| 1000 s | O=c1n(CCc2ccccc2)nc2c(S(=O)(=O)N3CCCCCC3)cccn12 |
| 692 s | CC(=O)N1CCC2(CC1)OC(=O)C(C)=C2C(=O)N1CCc2ccccc2C1 |
| 867 s | Cc1cccc(N2CCN(C(=O)C3CCc4sc(C(=O)N(C)C)cc4C3)CC2)c1 (stereo unspecified) |
| 822 s | CC(C)c1noc(-c2ccn3c(CC(=O)N4CCc5ccccc5C4)nnc3c2)n1 |
| 673 s | Cc1ccn2cc(-c3ccc(NC(=O)/C=C/c4ccccc4)cc3)nc2n1 |
| 1020 s | O=c1ccc(-c2ccc(F)cc2)nn1CCc1nc(-c2ccccc2Cl)no1 |
| 667 s | NC(=O)COc1cc(-c2cccc(Cl)c2)nc2ccc(NC(=O)C3CC3)cc12 |

| RP-LC retention time | SMILES |
| --- | --- |
| 890 s | COc1ccc(N2CCN(c3cc(SCC(=O)Nc4ccc(C#N)cc4)ncn3)CC2)cc1 |
| 732 s | Cc1ccc(Cl)cc1N1CCN(S(=O)(=O)c2nn(C)cc2C(=O)NCCN(C)C)CC1 |
| 640 s | COc1ccc(-n2c(CN3CCN(C(=O)NC(C)(C)C)CC3)nc3cccnc32)cc1 |
| 988 s | CCOC(=O)c1noc2ncnc(N(C)Cc3ccccc3)c12 |
| 604 s | O=C(c1ccncn1)N1C[C@@H](COCC2CC2)[C@H](c2ccccn2)C1 |
| 871 s | O=C(CC1CCN(C(=O)C2CCCCC2)CC1)NCCc1c[nH]c2ccc(Cl)cc12 |
| 788 s | COc1ccc(C)cc1NC(=O)C1CCN(S(=O)(=O)c2ccc3c(c2)NC(=O)C(C)O3)CC1 (stereo unspecified) |
| 708 s | Cc1noc(C)c1S(=O)(=O)N1CCC2(CC1)N(c1ccccc1)C(=O)CS2=O (stereo unspecified) |
| 607 s | COc1ccc(-c2cn3c(CC(=O)N4CCOCC4)csc3n2)cc1OC |
| 596 s | CCN(Cc1ccccc1)C(=O)Cn1c(N)nc(C)cc1=O |
| 930 s | Cc1nnc2ccc(S(=O)(=O)N(Cc3ccccc3)c3ccc(Cl)cc3)cn12 |
| 870 s | Cc1cccc(CN2CCCn3nc(C(=O)NCCc4ccco4)cc3C2=O)c1 |
| 966 s | COc1cccc(-n2cc(-c3nc(-c4ccccn4)no3)c3ccccc3c2=O)c1 |
| 808 s | CC(O)(CNC(=O)c1cccc(C(F)(F)F)c1)c1ccccc1 (stereo unspecified) |
| 619 s | Cn1cc(CCN2CCC(C(=O)NCC3CCCCC3)CC2)c2cccnc21 |
| 1080 s | CCCN1C(=O)COc2ccc(-c3noc(Cc4cccc(OC)c4)n3)cc21 |
| 558 s | CCN1CCN(CCCNC(=O)C2Cn3cccc3C(=O)N2CC(C)C)CC1 (stereo unspecified) |
| 644 s | CC(=O)Nc1cc(NC(C)=O)ncn1 |
| 790 s | O=S(=O)(NCC(c1cccnc1)c1c[nH]c2ccccc12)c1ccc2c(c1)CCCC2 (stereo unspecified) |
| 826 s | CCOC(=O)c1nc(Nc2cccc(C)c2C)c2ccccc2n1 |
| 885 s | CC1=C(c2ccc(C)cc2)S(=O)(=O)N=C1N1CCCN(C(=O)c2ccc(C)cc2)CC1 |
| 808 s | CCCN(CC1CCOC1)C(=O)c1cc(F)cc(F)c1 (stereo unspecified) |
| 684 s | Cc1ccc(-c2ccc(=O)n(C(C)C(=O)O)n2)cc1 (stereo unspecified) |

| RP-LC retention time | SMILES |
| --- | --- |
| 1160 s | Cc1nn(-c2ccc(-c3ccccc3)nn2)c(C)c1S(=O)(=O)N1CCC(C)CC1 |
| 668 s | COc1cc(-c2cccc(Cl)c2)nc2ccc(NC(C)=O)cc12 |
| 561 s | O=C(NCc1ccc(N2CCCCC2)cc1)c1ccc2ncnc(N3CCCC3)c2c1 |
| 608 s | O=C(c1ccccc1)N1CCc2sc(C(=O)N3CCN(c4ccccn4)CC3)cc2C1 |
| 752 s | CCNC(=O)N1CCc2nc(-c3ccc(F)cc3)ncc2C1 |
| 973 s | CCOc1ccccc1N1CCN(S(=O)(=O)c2nn(C)cc2C(=O)NCC2CC2)CC1 |
| 896 s | Cc1ccc(C)c2sc(N(C)CC(=O)Nc3ccc(-n4cnnn4)cc3)nc12 |
| 672 s | CC(C)NC(=O)C1CCCN(c2nc3ncn(CC(=O)NCc4ccccc4)c(=O)c3s2)C1 (stereo unspecified) |
| 695 s | Cc1ccsc1C(=O)N1C[C@@H](F)C[C@H]1C(=O)N1CCCCC1 |
| 807 s | CC(C)c1ccccc1NC(=O)CN1C(=O)NC2(CCCCC2)C1=O |
| 966 s | COc1ccc(-c2cc(N3CCC(NC(=O)c4ccc(Br)cc4)C3)n[nH]2)cc1 (stereo unspecified) |
| 563 s | NC(=O)C1CCN(Cc2nc(-c3ccc(N4CCOCC4)nc3)no2)CC1 |
| 800 s | CC(=O)c1cccc(NC(=O)c2cnc(-c3ccccc3)nc2-c2ccncc2)c1 |
| 575 s | O=C(O)c1cccnc1N1CCCCC1 |
| 615 s | O=C(C1CCN(c2nc3ccc(-c4cccnc4)nc3s2)CC1)N1CCCC1 |
| 953 s | Cc1ccc(N2C=C(C(=O)N3CCCCC3)S(=O)(=O)c3ccccc32)cc1C |
| 829 s | CC(C)CN1CCCCc2cc(C(N)=O)sc21 |
| 791 s | CCCn1cc(CCNC(=O)c2ccc(F)c(F)c2)c2cccnc21 |
| 700 s | CCN1CCn2cc(S(=O)(=O)Nc3cccc(OC)c3)cc2C1=O |
| 630 s | O=C(Cn1c(=O)n(-c2ccccc2)c2ncccc21)NC1CCN(Cc2ccccc2)CC1 |

| SMILES | RP-LC retention time |
| --- | --- |
| CCN(CC)C(=O)c1ccc2c(c1)N(CC(=O)N1CCC(C)CC1)C(=O)C1CCCCN21 (stereo unspecified) | 838 s |
| c1ccc2nc(OCCN3CC3)ccc2c1 | 727 s |
